For the test, the target named is T1, human and rat GPR-14 (UniProt Q9UKP6).
T1 sequence (Q9UKP6 1-389): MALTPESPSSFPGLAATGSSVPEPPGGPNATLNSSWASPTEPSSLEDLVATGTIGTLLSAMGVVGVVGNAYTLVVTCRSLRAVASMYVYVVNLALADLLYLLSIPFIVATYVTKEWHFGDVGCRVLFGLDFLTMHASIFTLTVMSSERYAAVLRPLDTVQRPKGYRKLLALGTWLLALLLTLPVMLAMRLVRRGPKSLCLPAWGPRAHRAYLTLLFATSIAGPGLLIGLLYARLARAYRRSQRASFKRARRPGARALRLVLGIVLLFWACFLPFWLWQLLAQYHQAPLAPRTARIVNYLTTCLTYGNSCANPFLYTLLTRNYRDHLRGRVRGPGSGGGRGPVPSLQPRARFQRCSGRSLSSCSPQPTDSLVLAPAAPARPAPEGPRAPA
Put plainly: Radioligand binding, [125I] h-U-II, HEK-293 cell membranes. The conditions noted are these: radioligand binding assay; HEK-293 cell membranes with stable cloned GPR-14; 200 pM [125I] h-U-II. The procedure:
HEK-293 cell membranes containing stable cloned human and rat GPR-14 (20 ug/assay) were incubated with 200 pM [125I] h-U-II (200 Ci/mmol^−1 in the presence of increasing concentrations of test compounds in DMSO (0.1 nM to 10 uM), in a final incubation volume of 200 ul (20 mM Tris-HCl, 5 mM MgCl2). Incubation was done for 30 minutes at room temperature followed by filtration GF/B filters with Brandel cell harvester. ^125I labeled U-II binding was quantitated by gamma counting. Nonspecific binding was defined by ^125I U-II binding in the presence of 100 nM of unlabeled human U-II. Analysis of the data was performed by nonlinear least square fitting.

In the case of `COc1cc(NCCCNC(=O)C(c2ccccc2)c2ccccc2)nc2ccccc12` [Example 29, N-[3-(4-Methoxy-quinolin-2-ylamino)-propyl]-2,2-diphenyl-acetamide], the affinity corresponds to a Ki of 90 nM.

These data come from patent publication US6818655B2, “Urotensin-II receptor antagonists” (SmithKline Beecham Corporation, priority 2001, dated 2004).
